Results published in patent publication US20250221943A1, “POLYDOPAMINE CO-POLYMER NANOPARTICLES” (CAMBRIDGE ENTERPRISE LIMITED, priority 2022, published 2025).

Assays:
[1] = tested on: MIA PaCa-2; experiment: MTS assay cytotoxicity of SN38 and SN38@F127@PDA; assay type: cell-based, human; details: MIA PaCa-2, MTS, 72 h treatment
Method: (§1) Additionally, the effect of F127@PDA NPs on the viability of AsPC-1, BxPC-3, MIA PaCa-2, PANC-1 and ARPE-19 using MTS assay (Promega, USA.) Cells were seeded into clear 96-well plates containing 2000 cells/well in 100 μL complete growth medium and cultured for 24 h at 37° C. and 5% CO2. Subsequently, cells were treated with varying concentrations of F127@PDA_40, F127@PDA_60 and F127@PDA_100 (0.01-100 μg/mL) dissolved in complete growth media containing 0.1% water. After further 72 h incubation at 37° C. and 5% CO2, 20 μL of CelTiter 96® AQueous One Solution (Promega, USA) was added into each well and incubated at 37° C., 5% CO2 for 1-4 h, according to the manufacturer's instruction. The absorbance of each well was measured at 490 nm using a Spark plate reader (TECAN, CH). Control measurements included negative control of cells with DMEM, cells with DMEM containing 0.1% water, cell-free culture media (blank) and cell-free sample dilutions in culture media to evaluate potential sample interferences with MTS reagent. All experiments were conducted in biological triplicates. The percentage cell viability was calculated according to the following:
(§2) Cells were seeded into 96-well plates at concentration of 2000 cells/well, in 100 μl of complete growth medium and incubated at 37 C, 5% CO2 for 24 h. After overnight incubation, the cells were treated with SN38 and the same concentration of SN38@F127@PDA using various concentrations (0.0001 μM-1 μM). The plates were inserted into the IncuCyte®S3 Live-Cell Analysis System (Sartorius) for real-time imaging. Treated plates were imaged every 3 h for 72 h under cell culture conditions with 10× objective using the brightfield channel. Average cell confluence was calculated as described in the previous section. In addition to live cell imaging after 72 h incubation in the IncuCyte®S3 MTS assay was performed as described in the section above.

[2] = tested on: BxPC-3; experiment: MTS assay cytotoxicity of SN38 and SN38@F127@PDA; assay type: cell-based, human; details: BxPc-3, MTS, 72 h treatment
Method: as §1, §2

[3] = tested on: AsPC-1; experiment: MTS assay cytotoxicity of SN38 and SN38@F127@PDA; assay type: cell-based, human; details: AsPC-1, MTS, 72 h treatment
Method: as §1, §2

[4] = tested on: PANC-1; experiment: MTS assay cytotoxicity of SN38 and SN38@F127@PDA; assay type: cell-based, human; details: PANC-1, MTS, 72 h treatment
Method: as §1, §2

[5] = tested on: MIA PaCa-2; experiment: Live-cell imaging (IncuCyte) cytotoxicity of SN38 and SN38@F127@PDA; assay type: cell-based, human; details: MIA PaCa-2, live-cell imaging, 72 h treatment
Method: (§3) All NPs were tested for cytotoxicity studies in AsPC-1, BxPC-3, MIA-PaCa-2, PANC-1 and ARPE-19. Cells were seeded into 96-well plates at concentration of 2000 cells/well, in 200 μl of complete growth medium and incubated at 37 C, 5% CO2 for 24 h. After overnight incubation, the cells were treated with different concentration of F127@PDA-40, F127@PDA-60 and F127@PDA-100 (0.01-100 μg/mL) dissolved in complete cell media, the same volume of water was added for the negative control. The plates were then inserted into the IncuCyte®S3 Live-Cell Analysis System (Sartorius) for real-time imaging. Treated plates were imaged every 3 h for 72 h under cell culture conditions with 10× objective using the brightfield channel. Mean cell confluence was calculated using the images taken from 3 random fields of view per well using the IncuCyte S3 v2017A software. All Incucyte experiments were performed in triplicate in three independent experiments. Relative confluence values were obtained by normalizing each value to the time zero value in each sample and normalised to the untreated control sample.
as §2

[6] = tested on: BxPC-3; experiment: as above; assay type: cell-based, human; details: BxPc-3, live-cell imaging, 72 h treatment
Method: as §3, §2

[7] = tested on: AsPC-1; experiment: as above; assay type: cell-based, human; details: AsPC-1, live-cell imaging, 72 h treatment
Method: as §3, §2

[8] = tested on: PANC-1; experiment: as above; assay type: cell-based, human; details: PANC-1, live-cell imaging, 72 h treatment
Method: as §3, §2

[9] = Loading content by UV-Vis; assay type: physicochemical; details: for loading content of the drug in F127@PDA NPs: physical adsorption, conventional method
Method: F127@PDA NPs (5 mg) was dissolved in 10 mM Tris buffer (5 mL) and Fluorescein-TEG-NH2 (10 mg, 2 wt eq.) dissolved in 0.5 mL ethanol was added dropwise. The mixture was protected from direct sunlight and stirred over night at room temperature. Excess Fluorescein-TEG-NH2 was removed washing with Milli-Q water using Vivaspin 20 (Satorius, UK) centrifugal concentrators (10 kDa MWCO) for 15 min at 4000 rpm until the supernatant was colourless, followed by 3 days dialysis against water with 12-14 kDa MWCO dialysis bags.
To assess the loading capacity, absorption of SN38 was investigated adapting a method by Wang et al.^[90] A suspension of 10 mg F127@PDA NPs (1 mg/mL) and 2.5 mg SN38 (0.25 wt eq.) in DMSO:H2O=1:10 (10 mL) were sonicated for 30 min, followed by stirring at room temperature for 72 hours. To remove free drug, the reaction mixture was first centrifuged at 2000 rpm for 5 min. The supernatant was collected and washed with Milli-Q water using Vivaspin 20 (Satorius, UK) centrifugal concentrators (10 kDa MWCO) for 15 min at 4000 rpm. The obtained particles were diluted in Milli-Q water, frozen in liquid nitrogen and lyophilised to yield a dark brown powder. The loading content of SN38 within the NPs was determined using UV-Vis. The absorbance of SN38@F127@PDA NPs at 382 nm was deducted by the F127@PDA absorbance and the loading content was calculated according to the following equation: (3).^[98]
F127@PDA NPs (5 mg) was dissolved in 10 mM Tris buffer (5 mL) and the corresponding ligand 4-6 (10 mg, 2 wt eq.) dissolved in 0.5 mL ethanol was added dropwise. The mixture was protected from direct sunlight and stirred over night at room temperature. […]
A suspension of 10 mg F127@PDA NPs (1 mg/mL) and 2.5 mg of the corresponding drug (0.25 wt eq.) in DMSO:H2O=1:10 (10 mL) were sonicated for 30 min, followed by stirring at room temperature for 72 hours. […] The loading content of Gem and PTX within the NPs was determined using UV-Vis. The absorbance of the free drug in the supernatant was measured and the loading content was calculated according to the following equation: […]

Which results are given for `CCc1c2c(nc3ccc(O)cc13)-c1cc3c(c(=O)n1C2)COC(=O)[C@]3(O)CC` [SN38]?
IC50 [1]: 13.1 nM; IC50 [2]: 56 nM; IC50 [3]: 110 nM; IC50 [4]: 113 nM; IC50 [5]: 12.1 nM; IC50 [6]: 8.91 nM; IC50 [7]: 52.9 nM; IC50 [8]: 56.1 nM

Which “loading content (w/w) of the ligand on functionalized F127@PDA NPs” value ([9]; Michael addition post-functionalization) does the source give for “TAMRA-CONH—PKKKRKVC—COOH ({TAMRA}-PKKKRKVC-OH) [TAMRA-NLS]” here?
Its value is 3%.

Which “loading content of the drug in F127@PDA NPs” value [9] does the source give for `CC(=O)O[C@H]1C(=O)[C@@]2(C)[C@H]([C@H](OC(=O)c3ccccc3)[C@]3(O)C[C@H](OC(=O)[C@H](O)[C@@H](NC(=O)c4ccccc4)c4ccccc4)C(C)=C1C3(C)C)[C@]1(OC(C)=O)CO[C@@H]1C[C@@H]2O` [PTX, Paclitaxel] here?
The value was 14.3±4.7 % (w/w).

For `Nc1ccn([C@@H]2O[C@H](CO)[C@@H](O)C2(F)F)c(=O)n1` [Gem, Gemcitabine], which “loading content of the drug in F127@PDA NPs” value [9] is on record?
The value was 11.5±5.7 % (w/w).
